Experimental data as given in US20210369583A1, “COMPOSITIONS FOR PROVIDING SKIN CARE BENEFITS AND METHODS OF USE” (Danisco US Inc., priority 2018, published 2021).
Marks after values point to notes of the source that are not given here.

Tests used:
Type in all cases: cell-based
[1] = system: living human skin explants; assay: Biochemical assay of MDA (lipid peroxidation) on living human skin explants exposed to pollutants
Procedure: Product A (Table 11) was diluted in water to obtain the following products at concentrations: product P1=A at 4%, product P2=A at 2% and product P3=A at 1%.
59 human skin explants of an average diameter of 14 mm (±1 mm) were prepared on an abdoplasty coming from a person. The explants were kept in survival in BEM culture medium at 37° C. in a humid, 5%-CO2 atmosphere.
The tested products were topically applied on the basis of 2 μl per cm^2 and spread using a small spatula twice a day (morning and evening) on day 0, 1, 2, 3 and 4.
On D4, the explants of the batches ML and PML were placed on the 3D grid with 900 μl of HBSS and placed into the PolluBox® system.
3 mL of the solution <<ML>> (supplemented with 150 μl/ml of NaCl 0.9%) were exposed by vaporization for 1 hour and half, as shown in the figure below.
The MDA assay was realized with an enhanced method of the TBARs (Thiobarbituric Acid Reactive Species) assay. The MDA was assayed in HBSS medium by addition of TBARs solution (thiobarbituric acid, hydrochloric acid and tricholoroacetic acid) and placed in a water bath (80° C. for 15 minutes). A lot of substances (like glucose) which are not related with lipoperoxidation, react with thiobarbituric acid (ThioBarbituric Acid Reagents=TBARS), so to enhance the specificity of the assay, the MDA was extracted by a liquid/liquid extraction with butanol. The MDA in butanol was measured in spectrofluorimetry (excitation: 515 nm, emission: 550 nm) using a Tecan Infinite M200 Pro microplate reader. Using this assay, MDA contained in the culture medium BEMc on […] was measured for the 4 explants per batch. The MDA concentration was expressed in pmol of MDA/ml of the medium. Concerned batches: all batches on day 5, 4 explants per batch.
The average of the blank batch TJ5 was calculated (154.0 nmol/L). Then, for each explant of MLJ5, this average value was subtracted from […]. That corresponds to calculating the delta (increase) of MDA induced by ML for each explant compared to the average of the batch without ML, it is ΔML.
These average deltas were then compared to the average delta of MDA induction without treatment (ΔML).

[2] = system: human living skin explant; assay: TUNEL assay (UV-induced DNA damage) on human living skin explants
Procedure: (§1) human skin explants of an average diameter of 12 mm (±1 mm) were prepared on an abdoplasty coming from a person). The explants were kept in survival in BEM culture medium at 37° C. in a humid, 5%-CO2 atmosphere.
(§2) On day 0 (D0), day 1, day 2 and day 3 (3 hours before irradiation), the tested products were applied topically on surface of skin explants at the rate of 2 mg/cm^2, twice a day for D1 and D2 and once on DO and D3. […] The medium was half renewed (1 ml per well) on day 2.
(§3) On D3, the culture media of all the batches was replaced by HBSS solution (Hank's Balanced Saline Solution; 1 ml per explant). The batches “UV” were irradiated by UVA+ UVB using a UV simulator Vibert Lourmat RMX 3W with a dose of 18 J/cm2 of UVA (4 MED, minimal erythemal dose) and 0.3 J/cm2 of UVB (2 MED). The unirradiated batches were kept in HBSS in the dark. At the end of the irradiation the explants were put back in 2 mL of BEM medium.
(§4) After fixation for 24 hours in buffered formalin, the samples were dehydrated and impregnated in paraffin using a Leica PEARL dehydration automat. The samples were embedded using a Leica EG 1160 embedding station. 5-μm-thick sections were made using a Leica RM 2125 Minot-type microtome, and the sections were mounted on Superfrost® histological glass slides. The frozen samples were cut into 7-μm-thick sections using a Leica CM 3050 cryostat. Sections were then mounted on Superfrost® plus silanized glass slides. The microscopical observations were realized using a Leica DMLB or Olympus BX43 microscope. Pictures were digitized with a numeric DP72 Olympus camera with CellD storing software.
DNA oxidization is a type of damage that can be promoted by reactive oxygen species (ROS), generated by UV exposure. […] The staining was assessed by microscopical observation. Batches analyzed were T, TUV, P1UV, P2UV, P3UV at day 4 also referred to as TJ4, TUVJ4, P1UVJ4, P2UVJ4, P3UVJ4 (T=Control batch non treated non irradiated; TJ4=T at Day 4 (D4); TUV: control batch non treated UV irradiated; TUVJ4=[…] at Day 4; P1J4: product A 4% non irradiated at D4; P2J4: product A 2% non irradiated at D4; P3J4: product A 1% non irradiated at D4; P1UV: product A 4% UV irradiated; P1UVJ4: product A 4% UV irradiated at D4 P2UV: product A 2% UV irradiated; P2UVJ4: product A 2% UV irradiated at D4; P3UV: product A 1% UV irradiated; P3UVJ4: product A 1% UV irradiated at D4

[3] = system: human living skin explant; assay: Immunostaining of carbonylated proteins (FTZ) on human living skin explants; conditions: UV irradiated
Procedure: as §1, §2, §3, §4
Protein carbonylation is a type of protein oxidation that can be promoted by reactive oxygen species (ROS), generated by UV exposure. FTZ marker assay was conducted by immunostaining in the living epidermis of human skin explant as follows: Carbonylated proteins were stained on frozen sections with the anti-carbonylated proteins probe (fluorescein-5-thiosemicarbazid-FTZ) (Lifetechnologies, Ref. F-121) diluted at 0.5 μM in MES-Na+ and incubated for 30 minutes in the dark and at room temperature. The staining was observed by epifluorescence and assessed by microscopical observations. Batches analyzed were T, TUV, P1UV, P2UV, P3UV at day 4 also referred to as TJ4, TUVJ4, P1UVJ4, P2UVJ4, P3UVJ4

[4] = system: human living skin explant; assay: Cell viability of human living skin explants (UV study); conditions: day 4
Procedure: as §1, §2, §3, §4

[5] = system: Reconstructed Human Epidermis (RHE); assay: Caffein diffusion test on Reconstituted Human Epidermis (RHE); conditions: for caffein diffusion through RHE: systemic treatment
Procedure: By measuring the amount of […] […] The epidermis used was a Reconstructed Human Epidermis, called “RHE”, 0-day-old, batch no 01015-444, placed in culture conditions 37° C., 5% CO2. The assay medium was the Bioalternatives maintenance medium. RHE at Day 0 (when placed at the air/liquid interface) were placed in assay medium containing or not (control) the compounds, the combination or the reference (vitamin C at 200 μg/ml). This is referred to as a systemic application, to be differentiated from a topical application. RHE were then incubated for 7 days with treatment renewal at Day 3 and Day 5. All experimental conditions were performed in n=3. At the end of incubation (Day 7), radioactive […] ([^14[…] applied on the surface of each epidermis. The radioactivity contained in subnatants was measured by liquid scintillation after 30 minutes, 1, 2, 3, 4, 5, 6, 7 and 8 hours of incubation. The barrier function is calculated according to the below formula:

O=C(O)[C@@H]1CCCN1 [Combination P5, L-Proline]
MDA, variation ΔPML vs ΔML ([1]; MDA induction by pollutants, day 5): −48%* | reduction of the increase of MDA ([1]; after pollutant exposure (ΔPML vs ΔML)): 48% | MDA, variation PML vs ML ([1]; after pollutants exposure, day 5): −14% # | activity against UV-induced DNA damage ([2]; UV irradiated): totally inhibits the increase of DNA damage | DNA damage (TUNEL), variation vs TJ4 ([2]; non irradiated, day 4): ↔ (indicates no variation) | effect on UV-induced carbonylated proteins [3]: slightly inhibits the formation of carbonylated proteins | Cell Viability, variation vs TUVJ4 ([4]; UV irradiated): ↔ (indicates no variation) | Cell Viability, variation vs TJ4 ([4]; non irradiated): ↔ (indicates no variation)

C[N+](C)(C)CC(=O)O [betaine]
Barrier function % Control ([5]; 0.5 hrs, 10 mg/ml): 97% | Mean [14C]-caffein (cpm) ([5]; 0.5 hrs, 10 mg/ml): 20507 cpm | [14C]-caffein % Control ([5]; 0.5 hrs, 10 mg/ml): 104% | Barrier function % Control ([5]; 1 hrs, 10 mg/ml): 91% | Mean [14C]-caffein (cpm) ([5]; 1 hrs, 10 mg/ml): 50356 cpm | [14C]-caffein % Control ([5]; 1 hrs, 10 mg/ml): 110% | Barrier function % Control ([5]; 2 hrs, 10 mg/ml): 85% | Mean [14C]-caffein (cpm) ([5]; 2 hrs, 10 mg/ml): 117502 cpm | [14C]-caffein % Control ([5]; 2 hrs, 10 mg/ml): 117% | Barrier function % Control ([5]; 3 hrs, 10 mg/ml): 87% | Mean [14C]-caffein (cpm) ([5]; 3 hrs, 10 mg/ml): 156579 cpm | [14C]-caffein % Control ([5]; 3 hrs, 10 mg/ml): 114% | Barrier function % Control ([5]; 4 hrs, 10 mg/ml): 91% | Mean [14C]-caffein (cpm) ([5]; 4 hrs, 10 mg/ml): 173278 cpm | [14C]-caffein % Control ([5]; 4 hrs, 10 mg/ml): 110% | Barrier function % Control ([5]; 5 hrs, 10 mg/ml): 92% | Mean [14C]-caffein (cpm) ([5]; 5 hrs, 10 mg/ml): 186588 cpm | [14C]-caffein % Control ([5]; 5 hrs, 10 mg/ml): 108% | Barrier function % Control ([5]; 6 hrs, 10 mg/ml): 93% | Mean [14C]-caffein (cpm) ([5]; 6 hrs, 10 mg/ml): 193499 cpm | [14C]-caffein % Control ([5]; 6 hrs, 10 mg/ml): 107% | Barrier function % Control ([5]; 7 hrs, 10 mg/ml): 96% | Mean [14C]-caffein (cpm) ([5]; 7 hrs, 10 mg/ml): 196233 cpm | [14C]-caffein % Control ([5]; 7 hrs, 10 mg/ml): 104% | Barrier function % Control ([5]; 8 hrs, 10 mg/ml): 99% | Mean [14C]-caffein (cpm) ([5]; 8 hrs, 10 mg/ml): 195439 cpm | [14C]-caffein % Control ([5]; 8 hrs, 10 mg/ml): 101% | caffein diffusion through RHE ([5]; 3 mg/ml): induced a decrease of caffein diffusion through the RHE only after 30 minutes | caffein diffusion through RHE ([5]; 10 mg/ml): No inhibitory effect

O=C1O[C@H]([C@@H](O)CO)C(O)=C1O [vitamin C]
caffein diffusion through RHE ([5]; 200 μg/ml): decreased significantly this diffusion
